{"source": "paper PMC9853328", "about": "“Potent Platinum(IV) Prodrugs That Incorporate a Biotin Moiety to Selectively Target Cancer Cells” (Pharmaceutics, 2022)", "key": {"[1]": {"tested_on": "MCF-7 breast cancer cells", "test": "MTT in vitro cytotoxicity assay, MCF-7", "type": "cell-based"}, "[2]": {"tested_on": "Du145 prostate cancer cells", "test": "MTT in vitro cytotoxicity assay, Du145", "type": "cell-based", "method": "(§1) The in vitro cytotoxicity assays were undertaken at Calvary Mater Hospital, Waratah, NSW, Australia, following a method previously published in the literature. A stock solution for each compound was prepared in DMSO (30 mM) and stored at −20 °C. The cell lines used in the study include HT29 colon, U87 glioblastoma, MCF-7 breast, A2780 ovarian, H460 lung, A431 skin, Du145 prostate, BE2-C neuroblastoma, SJ-G2 glioblastoma, MIA pancreas, and cisplatin-resistant ADDP ovarian (subclone of A2780) cancer cells, as well as the non-cancerous-derived MCF10A breast cell line. The cancer cell lines were cultured in a humidified atmosphere 5% CO2 at 37 °C and maintained in Dulbecco’s modified Eagle’s medium (Trace Biosciences, Sydney, Australia), supplemented with 10% foetal bovine serum, sodium bicarbonate (10 mM), penicillin (100 IU/mL), streptomycin (100 µg/mL), and glutamine (4 mM). The non-cancerous MCF10A cell line was maintained in DMEM:F12 (1:1) cell culture media, with 5% heat inactivated horse serum, supplemented with penicillin (50 IU/mL), streptomycin (50 µg/mL), glutamine (2 mM), HEPES (20 mM), epidermal growth factor (20 ng/mL), hydrocortisone (500 ng/mL), cholera toxin (100 ng/mL), and insulin (10 µg/mL). Cells were plated in duplicate in medium (100 µL) at a density of 2500–4000 cells per well in 96-well plates. On day 0, (24 h after plating) when the cells were in logarithmic growth, medium (100 μL) with or without the test agent was added to each well. The growth inhibitory effects were evaluated after 72 h drug exposure, using the MTT (3-(4,5-dimethylthiazol-2-yl)-2,5-diphenyltetrazolium bromide) assay, with the absorbance read at 540 nm. An eight-point dose–response curve was produced, which was used to determine the concentration at which growth was inhibited by 50% (GI50). This calculation was based on the difference between the optical density values on day 0 and those at the end of drug exposure. […] Experiments were conducted on three separate occasions and GI50 values were reported as the mean and standard error of the mean."}, "[3]": {"tested_on": "ADDP (subclone of A2780) versus A2780 ovarian cancer cell lines", "test": "Resistance factor, GI50 in ADDP/GI50 in A2780", "type": "cell-based"}, "[4]": {"tested_on": "SJ-G2 glioblastoma cells", "test": "MTT in vitro cytotoxicity assay, SJ-G2", "type": "cell-based", "settings": "72 h drug exposure, n = 3, read-out: GI50 ± SEM, SJ-G2", "method": "as §1"}, "[5]": {"tested_on": "A431 skin cancer cells", "test": "MTT in vitro cytotoxicity assay, A431", "type": "cell-based", "settings": "72 h drug exposure, n = 3, read-out: GI50 ± SEM, A431", "method": "as §1"}, "[6]": {"tested_on": "HT29 colon cancer cells", "test": "MTT in vitro cytotoxicity assay, HT29", "type": "cell-based", "method": "as §1"}, "[7]": {"tested_on": "cisplatin-resistant ADDP ovarian (subclone of A2780) cancer cells", "test": "MTT in vitro cytotoxicity assay, ADDP", "type": "cell-based", "settings": "72 h drug exposure, n = 3, read-out: GI50 ± SEM, ADDP", "method": "as §1"}, "[8]": {"tested_on": "H460 lung cancer cells", "test": "MTT in vitro cytotoxicity assay, H460", "type": "cell-based", "settings": "72 h drug exposure, n = 3, read-out: GI50 ± SEM, H460", "method": "as §1"}, "[9]": {"tested_on": "panel of cancer cell lines", "test": "MTT cytotoxicity averaged across the panel of cancer cell lines", "type": "cell-based"}, "[10]": {"tested_on": "BE2-C neuroblastoma cells", "test": "MTT in vitro cytotoxicity assay, BE2-C", "type": "cell-based", "settings": "72 h drug exposure, n = 3, read-out: GI50 ± SEM, BE2-C", "method": "as §1"}, "[11]": {"tested_on": "MCF-7 (breast cancer) cells", "test": "Cellular platinum uptake by ICP-MS, MCF-7", "type": "cell-based", "settings": "at both 1.0 and 0.1 µM, 4 h", "method": "Cellular uptake studies were carried out in MCF-7 (breast cancer) and MCF10A (healthy breast) cell lines. Reported in Table S2 are the numbers of cells per well that were seeded onto 12-well plates for each replicate and cell line. After incubating overnight at 37 °C, the cell culture medium was replaced with fresh media containing the test compounds at concentrations of 1.0 and 0.1 µM. After incubating for 4 h, the medium was removed, the cells were washed with PBS twice, and then incubated with trypsin solution until the cells dissociated from the plate. The harvested cells were then placed into an Eppendorf tube and PBS was added to a volume of 1 mL. Cell numbers were determined using trypan blue staining. Cell pellets were obtained after centrifugation and the cells were dispersed in 50 µL of MilliQ™ water and stored immediately at −20 °C until platinum analysis was conducted. These experiments were repeated in triplicate on three separate occasions.\nSixty-nine percent HNO3 (50 µL) was added to each sample and digested at 80 °C for 1.5 h, before being taken up to 1 mL with H2O. The platinum analysis was conducted using a PerkinElmer (Melbourne, Australia) NexION™ 300X inductively coupled plasma mass spectrometer (ICP-MS). A four-point calibration curve was produced by serial dilution of a certified platinum reference standard. The calibration was linear over the working range (R^2 > 0.9999) and the most abundant platinum isotope (m/z = 195) was monitored. The average values for three independent experiments were reported with standard deviations."}, "[12]": {"tested_on": "non-cancerous MCF10A breast cell line", "test": "MTT in vitro cytotoxicity assay, MCF10A", "type": "cell-based", "settings": "72 h drug exposure, n = 3, read-out: GI50 ± SEM, MCF10A", "method": "as §1"}, "[13]": {"test": "Lipophilicity by RP-HPLC (logkw)", "type": "physicochemical", "settings": "capacity factor in 100% water", "method": "HPLC experiments were carried out using an Agilent Technologies (Melbourne, Australia) 1260 Infinity instrument, equipped with a Phenomenex (Sydney, Australia) Onyx^TM Monolithic C18 reverse phase column (100 × 4.6 mm, 130 Å). The mobile phase was made up of 0.06% TFA in water (solvent A) and 0.06% TFA in an acetonitrile:water (9:1) mixture (solvent B). Samples were eluted over a gradient of 0–100% (% B) for 15 min, at a flow rate of 1 mL/min, with a sample injection volume of 10 µL. Eluting peaks were detected using a PDA at 254 nm.\nFor lipophilicity experiments, RP-HPLC was utilised to determine the logkw of each compound, similarly to what has been previously published for similar complexes. Samples were eluted at various isocratic percentages, ranging from 18–30% solvent B. To determine the dead volume of the column, potassium iodide was used as an external dead volume marker. The retention time of each sample in each isocratic run ( tr ) and the dead volume time ( t0 ) were both substituted in Equation (1) to calculate the capacity factor ( k ). (1) k=tr−t0/t0\nFollowing this, logk was plotted against the percentage of ACN. For each complex, a minimum of four concentrations of ACN were used. This produced a linear graph with the equation in the form:(2) logk=Sφ+logkw where S is the slope, φ is the percentage of ACN, and logkw is the y-intercept, which represents the capacity factor of the compound in 100% water.\nIt is important to explore the lipophilicity of a drug, as it is widely believed that increased lipophilicity results in greater cellular accumulation. To understand the lipophilicity of 1–4, RP-HPLC was utilised to determine the logkw of each complex. To calculate this, each complex was eluted at different isocratic percentages, whereby the retention time was used in Equation (1) to calculate the capacity factor (k). The percentage of the organic solvent was then plotted against log k for each isocratic percentage, producing a linear equation that allowed for logkw to be deduced using Equation (2) (Figure S38). The logkw value represents the capacity factor of the compound in 100% water and can be used to compare a series of compounds. Since 1–4 comprise the same axially bound ligand, biotin, the lipophilicity was influenced by the groups on the PL. The logkw of each complex is presented in Table 1, with their corresponding PL. The increasing lipophilicity of the complexes followed the order: 1 < 4 < 2 < 3."}, "[14]": {"tested_on": "MIA pancreas cancer cells", "test": "MTT in vitro cytotoxicity assay, MIA", "type": "cell-based", "settings": "72 h drug exposure, n = 3, read-out: GI50 ± SEM, MIA", "method": "as §1"}, "[15]": {"tested_on": "A2780 ovarian cancer cells", "test": "MTT in vitro cytotoxicity assay, A2780", "type": "cell-based", "settings": "72 h drug exposure, n = 3, read-out: GI50 ± SEM, A2780", "method": "as §1"}, "[16]": {"tested_on": "U87 glioblastoma cells", "test": "MTT in vitro cytotoxicity assay, U87", "type": "cell-based", "settings": "72 h drug exposure, n = 3, read-out: GI50 ± SEM, U87", "method": "as §1"}}, "note": "Where “and” joins values, the source holds several entries; their conditions need not be identical. Equal values may be shown once."}
{"smiles": "Cc1cc2ccc[n+]3c2c2c1ccc[n+]2[Pt-2]31([OH])([O]C(=O)CCCC[C@@H]2SC[C@@H]3NC(=O)N[C@@H]32)[NH2+][C@H]2CCCC[C@@H]2[NH2+]1.O=[N+]([O-])[O-].O=[N+]([O-])[O-]", "note": "[Complex 4, [Pt(5-methyl-1,10-phenanthroline)(1S,2S-diaminocyclohexane)(biotin)(hydroxido)](NO3)2]", "values": [{"measurement": "GI50", "setting": "[1]; MTT, 72 h drug exposure, n = 3, read-out: GI50 ± SEM, MCF-7", "value": "33 ± 4", "unit": "nM"}, {"measurement": "fold more active than its platinum(II) precursor in MCF-7", "setting": "[1]; ratio of GI50 values", "value": 6, "unit": "fold"}, {"measurement": "GI50", "setting": "[2]; MTT, 72 h drug exposure, n = 3, read-out: GI50 ± SEM, Du145", "value": "9 ± 4", "unit": "nM"}, {"measurement": "number-fold potency against cisplatin, Du145 prostate", "setting": "[2]; ratio of GI50 values, 72 h", "value": 133, "unit": "fold"}, {"measurement": "Resistance factor (RF)", "setting": "[3]", "value": "0.853 and 0.85"}, {"measurement": "GI50", "setting": "[4]", "value": "100 ± 30", "unit": "nM"}, {"measurement": "GI50", "setting": "[5]", "value": "110 ± 20", "unit": "nM"}, {"measurement": "GI50", "setting": "[6]; MTT, 72 h drug exposure, n = 3, read-out: GI50 ± SEM, HT29", "value": "28 ± 9", "unit": "nM"}, {"measurement": "number-fold potency against cisplatin, HT29 colon", "setting": "[6]; ratio of GI50 values, 72 h", "value": 404, "unit": "fold"}, {"measurement": "GI50", "setting": "[7]", "value": "29 ± 5", "unit": "nM"}, {"measurement": "GI50", "setting": "[8]", "value": "32 ± 10", "unit": "nM"}, {"measurement": "enhanced activity compared to platinum(II) precursor across the cancer cell lines", "setting": "[9]; across all cancer cell lines", "value": "~ 2.3 fold"}, {"measurement": "GI50", "setting": "[9]; calculated from the panel of cancer cell lines tested (Table S4)", "value": 55, "unit": "nM"}, {"measurement": "GI50", "setting": "[10]", "value": "100 ± 20", "unit": "nM"}, {"measurement": "fold lower uptake in MCF-7 than its platinum(II) precursor", "setting": "[11]", "value": "~ 2 fold"}, {"measurement": "GI50", "setting": "[12]", "value": "31 ± 9", "unit": "nM"}, {"measurement": "logkw", "setting": "[13]", "value": 0.74}, {"measurement": "GI50", "setting": "[14]", "value": "20 ± 4", "unit": "nM"}, {"measurement": "GI50", "setting": "[15]", "value": "34 ± 5", "unit": "nM"}, {"measurement": "GI50", "setting": "[16]", "value": "110 ± 30", "unit": "nM"}]}
